Source: patent publication US8318196B2, “Formulations comprising a vitamin and the use thereof to make fortified feed and personal care formulations” (Akzo Nobel N.V., priority 2006, dated 2012)

Experiment: Transmission of aqueous vitamin / castor oil ethoxylate formulations (Turbiscan LAb)
Assay type: physicochemical
Details: ingredients preheated to 50° C.
Method: Castor oil ethoxylates were evaluated in formulations with various vitamins by mixing 4 g of a vitamin with 4 g of the castor oil ethoxylate and subsequently adding 28 g water. All ingredients were preheated to 50° C. The transmission (light passing the through the emulsion) was measured using standard Turbiscan™ LAb equipment ex Formulaction. In the evaluation of the samples the highest transmission is looked for, since it indicates a clearer (and better) formulation.

[1] = Comparative Example B: 4 g vitamin + 4 g CO36EO + 28 g water, unit assumed
[2] = Example 1: 4 g vitamin + 4 g CO20EO + 28 g water, higher = clearer, better, unit assumed

Compound	transmission (light passing through the emulsion) (Comparative Example A: 4 g vitamin + 4 g CO28EO + 28 g water)	transmission (light passing through the emulsion) [1]	transmission (light passing through the emulsion) [2]	transmission (light passing through the emulsion) (Comparative Example A: 4 g vitamin + 4 g CO28EO + 28 g water, unit assumed)
CC(=O)OC/C=C(C)/C=C/C=C(C)/C=C/C1=C(C)CCCC1(C)C [Vit A acetate]	Not stable	0%	2.2%	–
C=C1CC[C@H](O)C/C1=C/C=C1\CCC[C@]2(C)[C@@H]([C@H](C)CCCC(C)C)CC[C@@H]12 [Vit D3]	–	2%	56.7%	64.4%
